For test [1], the target named is T1, Arabidopsis HPPD single point mutant SEQ ID No. 40 (Arabidopsis thaliana, UniProt P93836, V269A).
T1 construct: made in house; host or cells: E. coli BL21 (DE3)
Nature of the test: biochemical. The source says:
(§1) In this content, pI50-value means the log value of the concentration of inhibitor necessary to inhibit 50% of the enzyme activity in molar concentration.

Test [2] deals with T2, Arabidopsis HPPD single point mutant SEQ ID No. 50 (Arabidopsis thaliana, UniProt P93836, K421V).
T2 construct: made in house; host or cells: E. coli BL21 (DE3)
Nature of the test: biochemical.
From the text: as §1

In test [3] the target is T3, Arabidopsis HPPD single point mutant SEQ ID No. 48 (Arabidopsis thaliana, UniProt P93836, K421Q).
T3 construct: made in house; host or cells: E. coli BL21 (DE3)
Nature of the test: biochemical.
From the text: as §1

Test [4] deals with T4, Arabidopsis HPPD single point mutant SEQ ID No. 42 (Arabidopsis thaliana, UniProt P93836, P280A).
T4 construct: made in house; host or cells: E. coli BL21 (DE3)
Kind of test: biochemical.
From the text: as §1

Test [5] concerns the target T5, Arabidopsis HPPD single point mutant SEQ ID No. 35 (Arabidopsis thaliana, UniProt P93836, E252S).
T5 construct: made in house; host or cells: E. coli BL21 (DE3)
Nature of the test: biochemical.
From the text: as §1

In test [6] the target is T6, Arabidopsis HPPD single point mutant SEQ ID No. 44 (Arabidopsis thaliana, UniProt P93836, L368M).
T6 construct: made in house; host or cells: E. coli BL21 (DE3)
Nature of the test: biochemical.
From the text: as §1

Test [7] concerns the target T7, Arabidopsis HPPD single point mutant SEQ ID No. 46 (Arabidopsis thaliana, UniProt P93836, K421I).
T7 construct: made in house; host or cells: E. coli BL21 (DE3)
Kind of test: biochemical.
From the text: as §1

For test [8], the target named is T8, HPPD enzyme “SEQ ID No. 32” (Arabidopsis thaliana, UniProt P93836).
T8 construct: made in house; host or cells: E. coli BL21 (DE3)
T8 sequence (P93836 with tags, fused parts or gaps): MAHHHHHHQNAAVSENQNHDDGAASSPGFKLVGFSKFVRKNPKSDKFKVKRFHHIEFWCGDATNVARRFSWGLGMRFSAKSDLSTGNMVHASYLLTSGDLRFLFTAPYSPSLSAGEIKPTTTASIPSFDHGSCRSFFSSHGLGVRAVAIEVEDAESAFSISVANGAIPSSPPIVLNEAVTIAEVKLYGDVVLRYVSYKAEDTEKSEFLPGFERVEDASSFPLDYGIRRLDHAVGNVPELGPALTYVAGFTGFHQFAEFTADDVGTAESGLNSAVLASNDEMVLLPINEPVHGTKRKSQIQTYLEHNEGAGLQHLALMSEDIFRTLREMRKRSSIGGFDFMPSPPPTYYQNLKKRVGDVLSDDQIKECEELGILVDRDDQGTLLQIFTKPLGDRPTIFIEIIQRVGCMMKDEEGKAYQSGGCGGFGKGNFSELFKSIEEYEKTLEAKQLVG
Nature of the test: HPLC assay of HPPD in vitro kinetic properties (Km, Vmax, kcat; Ki, Kon, Koff). Type of test: biochemical. Conditions: for kinetic parameter / sensitivity of Arabidopsis thaliana HPPD in presence of inhibitor: 2 mM HPP. Here is the method: Km, Vmax, and kcat values for different HPPD enzyme preparations and Ki, K1=Kon, and K−1=Koff for different HPPD inhibitors were determined using a HPLC assay for measurements of HPPD activity. […] All assays were started by the addition of HPPD enzyme to the assay mixture and stopped at a series of times between 0 and 240 s by addition of 200 μl of the reaction mixture to reaction assay tubes containing 20 μl 10% perchloric acid. Precipitated protein was pelleted by a 5 minute centrifugation at 10,000 g.
For Km and Vmax value determinations the initial rates of the HPPD reaction at different substrate concentrations were determined from plots of HGA formed versus time and fitted to the Michaelis-Menten equation for unireactant enzymes using the ID Business Solutions Ltd. (www.idbs.com) XLfit software suite.

Another test concerns HPPD activity. Nature of the test: Colorimetric screening test for active HPPD enzymes (production of brown color). Type of test: cell-based, Escherichia coli. Conditions: E. coli with pSE420-HPPDx, 5 mM L-Tyrosine, 16 hours at 37° C. Here is the method:
A YT-broth-type culture medium with 1% agarose, 5 mM L-Tyrosine and 42 mM Succinate, which contains the selection agent for the vector pSE420 (Invitrogen, Karlsruhe, Germany) is poured into deep well plates. E. coli culture in the exponentional growth phase which contains the vector pSE420-HPPDx (HPPDx means any gene coding for a putative HPPD enzyme/protein) is applied to each well.
A YT-broth-type culture medium with 1% agarose, 5 mM L-Tyrosine and 42 mM Succinate, which contains the selection agent for the vector pSE420 is poured into deep well plates. E. coli culture in the exponentional growth phase which contains the vector pSE420-HPPDx (any gene coding for a putative HPPD enzyme/protein) is applied to each well.
It can be concluded that the two HPPD mutants are not able to convert HPP into homogentisate. […] One can conclude that the amino acid positions 267 and 282 (referring to position in SEQ ID No. 2) are essential for HPPD activity.

The mark [9] stands for this setting: substrate HPP varied 10-400 μM, HPPD SEQ ID No. 32, HPLC assay.

T5 sequence (P93836 whole entry E252S): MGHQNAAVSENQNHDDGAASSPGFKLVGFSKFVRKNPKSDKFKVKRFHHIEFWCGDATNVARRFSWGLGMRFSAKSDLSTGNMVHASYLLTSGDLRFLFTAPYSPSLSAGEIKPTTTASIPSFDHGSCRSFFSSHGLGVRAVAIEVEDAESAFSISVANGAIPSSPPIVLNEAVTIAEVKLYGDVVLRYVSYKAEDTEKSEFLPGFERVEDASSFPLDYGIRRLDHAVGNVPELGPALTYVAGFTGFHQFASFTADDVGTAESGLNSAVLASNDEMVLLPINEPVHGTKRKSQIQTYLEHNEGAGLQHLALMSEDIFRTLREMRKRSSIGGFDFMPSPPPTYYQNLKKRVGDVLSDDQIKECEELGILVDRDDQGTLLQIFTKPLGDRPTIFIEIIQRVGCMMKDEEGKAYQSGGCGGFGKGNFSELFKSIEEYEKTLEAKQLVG
T3 sequence (P93836 other isoform, or with tags, fused parts or gaps K421Q): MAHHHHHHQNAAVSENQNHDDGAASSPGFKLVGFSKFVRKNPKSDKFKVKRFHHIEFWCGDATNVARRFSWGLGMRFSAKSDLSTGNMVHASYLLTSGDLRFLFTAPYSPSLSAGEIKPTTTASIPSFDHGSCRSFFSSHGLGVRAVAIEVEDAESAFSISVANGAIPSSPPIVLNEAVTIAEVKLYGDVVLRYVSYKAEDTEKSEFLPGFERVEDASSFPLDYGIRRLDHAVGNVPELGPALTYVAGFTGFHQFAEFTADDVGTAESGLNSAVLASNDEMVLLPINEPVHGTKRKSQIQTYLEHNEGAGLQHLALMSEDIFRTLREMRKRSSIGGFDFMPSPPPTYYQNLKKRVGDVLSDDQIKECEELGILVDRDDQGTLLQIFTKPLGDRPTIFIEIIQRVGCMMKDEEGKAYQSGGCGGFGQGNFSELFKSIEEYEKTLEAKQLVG
T7 sequence (P93836 other isoform, or with tags, fused parts or gaps K421I): as the sequence (P93836 other isoform, or with tags, fused parts or gaps K421Q) above, with Q426I counted along it
T1 sequence (P93836 other isoform, or with tags, fused parts or gaps V269A): as the sequence (P93836 other isoform, or with tags, fused parts or gaps K421Q) above, with V274A, Q426K counted along it
T2 sequence (P93836 other isoform, or with tags, fused parts or gaps K421V): as the sequence (P93836 other isoform, or with tags, fused parts or gaps K421Q) above, with Q426V counted along it
T6 sequence (P93836 other isoform, or with tags, fused parts or gaps L368M): as the sequence (P93836 other isoform, or with tags, fused parts or gaps K421Q) above, with L373M, Q426K counted along it
T4 sequence (P93836 other isoform, or with tags, fused parts or gaps P280A): as the sequence (P93836 other isoform, or with tags, fused parts or gaps K421Q) above, with P285A, Q426K counted along it

As to `COCCOCc1nc(C(F)(F)F)ccc1C(=O)C1=C(O)C2CCC(C2)C1=O` (stereo not shown) [Bicyclopyrone, 4-hydroxy-3-[[2-[(2-methoxyethoxy)methyl]-6-(trifluoromethyl)-3-pyridinyl]carbonyl]bicyclo[3.2.1]oct-3-en-2-one], the IC50 in [1] is 50.1 µM; in test [2] it was 63.1 µM; in [3] it was 20 µM; in test [4], 50.1 µM; in test [5], 50.1 µM; in test [6] it was 31.6 µM. This molecule also showed an IC50 in test [7] of 63.1 µM.

Take `CS(=O)(=O)c1ccc(C(=O)C2C(=O)CCCC2=O)c([N+](=O)[O-])c1` [Mesotrione, 2-[4-(methylsulfonyl)-2-nitrobenzoyl]-1,3-cyclohexanedione]: in test [3], the IC50 is less than 2.51 µM.

Regarding `O=C(O)C(=O)Cc1ccc(O)cc1` [HPP], in [8] (setting [9]), the Km worked out at 6.3 µM and the Vmax was 1.2 µM.

`Cc1ccc(C(=O)COc2c(C(=O)c3ccc(Cl)c(C)c3Cl)c(C)nn2C)cc1` [Benzofenap]: the IC50 in test [1] was 6.31 µM; in test [2] it was 6.31 µM; in [3], less than 2.51 µM; in test [4], 6.31 µM; in test [5] it was 6.31 µM; in [6], less than 2.51 µM. In test [7], the IC50 is 7.94 µM.

Turning to `CS(=O)(=O)c1ccc(C(=O)C2C(=O)CCCC2=O)c(Cl)c1COCC(F)(F)F` [Tembotrione, 2-[2-chloro-4-(methylsulfonyl)-3-[(2,2,2,-tri-fluoroethoxy)methyl]benzoyl]-1,3-cyclo-hexanedione], the IC50 in test [1], in [2], in [3], in [4] and in [6] was less than 2.51 µM throughout. Also, the “kinetic parameter / sensitivity of Arabidopsis thaliana HPPD in presence of inhibitor” value in test [8] is listed as “comparable range”.

As for `CS(=O)(=O)c1cc(C(F)(F)F)ccc1C(=O)C(C#N)C(=O)C1CC1` (stereo not shown) [Diketonitrile, 2-cyano-3-cyclopropyl-1-(2-methylsulphonyl-4-trifluoromethylphenyl)-propane-1,3-dione], the “kinetic parameter / sensitivity of Arabidopsis thaliana HPPD in presence of inhibitor” value in test [8] was “sensitive in the similar range as the carrot HPPD”.

For the molecule `CS(=O)(=O)c1ccc(C(=O)C2C(=O)CCCC2=O)c(Cl)c1` [Sulcotrione, 2-[2-chloro-4-(methylsulfonyl)benzoyl]-1,3-cyclohexanedione], the IC50 is 10 µM in test [1]; 7.94 µM in test [2]; less than 2.51 µM in test [3]; 10 µM in test [4]; 7.94 µM in test [5]; 6.31 µM in [6]. This molecule had an IC50 in test [7] of 10 µM.

B1: S267A: point mutant S267A of A. thaliana HPPD with N-terminal alanine and 6 histidines (protein)
chain: MAHHHHHHQNAAVSENQNHDDGAASSPGFKLVGFSKFVRKNPKSDKFKVKRFHHIEFWCGDATNVARRFSWGLGMRFSAKSDLSTGNMVHASYLLTSGDLRFLFTAPYSPSLSAGEIKPTTTASIPSFDHGSCRSFFSSHGLGVRAVAIEVEDAESAFSISVANGAIPSSPPIVLNEAVTIAEVKLYGDVVLRYVSYKAEDTEKSEFLPGFERVEDASSFPLDYGIRRLDHAVGNVPELGPALTYVAGFTGFHQFAEFTADDVGTAESGLNAAVLASNDEMVLLPINEPVHGTKRKSQIQTYLEHNEGAGLQHLALMSEDIFRTLREMRKRSSIGGFDFMPSPPPTYYQNLKKRVGDVLSDDQIKECEELGILVDRDDQGTLLQIFTKPLGDRPTIFIEIIQRVGCMMKDEEGKAYQSGGCGGFGKGNFSELFKSIEEYEKTLEAKQLVG
modifications: N-terminal alanine and His6 tag; encoded by SEQ ID No. 33; SITE 2 MISC_FEATURE - Ala; MISC_FEATURE - His Tag made of 6 His
notes: point mutant S267A of A. thaliana HPPD with N-terminal alanine and 6 histidines
As to B1, in the test with HPPD activity, the “HPPD activity (production of brown color)” value (shortened to “HPPD activity”) was “inactive”.

B2: wild type HPPD: Arabidopsis thaliana wild type HPPD polypeptide with N-terminal alanine and 6 histidine amino acids (protein)
chain: MAHHHHHHQNAAVSENQNHDDGAASSPGFKLVGFSKFVRKNPKSDKFKVKRFHHIEFWCGDATNVARRFSWGLGMRFSAKSDLSTGNMVHASYLLTSGDLRFLFTAPYSPSLSAGEIKPTTTASIPSFDHGSCRSFFSSHGLGVRAVAIEVEDAESAFSISVANGAIPSSPPIVLNEAVTIAEVKLYGDVVLRYVSYKAEDTEKSEFLPGFERVEDASSFPLDYGIRRLDHAVGNVPELGPALTYVAGFTGFHQFAEFTADDVGTAESGLNSAVLASNDEMVLLPINEPVHGTKRKSQIQTYLEHNEGAGLQHLALMSEDIFRTLREMRKRSSIGGFDFMPSPPPTYYQNLKKRVGDVLSDDQIKECEELGILVDRDDQGTLLQIFTKPLGDRPTIFIEIIQRVGCMMKDEEGKAYQSGGCGGFGKGNFSELFKSIEEYEKTLEAKQLVG
modifications: misc_feature 1..1353 Nucleic acid sequence encoding Arabidopsis HPPD plus containingat the 5' end a nucleic acid encoding an Ala and 6 His aminoacids; misc_feature 4..6 sequence coding for an Ala; misc_feature 7..24 sequence coding for an His Tag containing 6 His
For the molecule B2, the “HPPD activity” value in the test with HPPD activity is “strong brown color”.

B3: N282A: point mutant N282A of A. thaliana HPPD with N-terminal alanine and 6 histidines (protein)
chain: MAHHHHHHQNAAVSENQNHDDGAASSPGFKLVGFSKFVRKNPKSDKFKVKRFHHIEFWCGDATNVARRFSWGLGMRFSAKSDLSTGNMVHASYLLTSGDLRFLFTAPYSPSLSAGEIKPTTTASIPSFDHGSCRSFFSSHGLGVRAVAIEVEDAESAFSISVANGAIPSSPPIVLNEAVTIAEVKLYGDVVLRYVSYKAEDTEKSEFLPGFERVEDASSFPLDYGIRRLDHAVGNVPELGPALTYVAGFTGFHQFAEFTADDVGTAESGLNSAVLASNDEMVLLPIAEPVHGTKRKSQIQTYLEHNEGAGLQHLALMSEDIFRTLREMRKRSSIGGFDFMPSPPPTYYQNLKKRVGDVLSDDQIKECEELGILVDRDDQGTLLQIFTKPLGDRPTIFIEIIQRVGCMMKDEEGKAYQSGGCGGFGKGNFSELFKSIEEYEKTLEAKQLVG
modifications: N-terminal alanine and His6 tag; encoded by SEQ ID No. 35; SITE 2 MISC_FEATURE - Ala; MISC_FEATURE - His Tag made of 6 His
notes: point mutant N282A of A. thaliana HPPD with N-terminal alanine and 6 histidines
As for B3, the “HPPD activity” value in the test with HPPD activity was “inactive”.

In general, IC50 refers to the concentration at which inhibition is half-maximal. Low values mean higher potency, high ones lower potency. A word on the Km: it is the concentration of substrate that gives half-maximal velocity.

These data come from US20250223607A1, “HPPD Variants and Methods of Use” (BASF Agricultural Solutions Seed US LLC, priority 2013, published 2025).
